The target of one test is recombinant human MET (Homo sapiens, UniProt P08581). Kind of test: z'-LYTE FRET kinase activity assay, MET.
Test [1] deals with MET phosphorylation (Y1234/1235) in OVCA429 cells. Kind of test: Western blot of HGF-stimulated MET phosphorylation in OVCA429 cells. In kind it is cell-based, human. The following applies: for effect on MET phosphorylation: OVCA429 cells, 0.1, 0.5 or 1 μM pre-treatment 1 hr, 100 ng/ml HGF stimulation, Western blot densitometry. The method, then:
Cells were serum-starved in media containing 0.1% fetal bovine serum ~16 hrs before the assay. […] Phosphorylation was then stimulated with 100 ng/ml HGF diluted in RPMI with 1 mg/ml BSA for 5 min at 37°C. Cell lysates were then prepared and run on a gel as described above. Western blot analysis was performed as described above using the MET and phospho-MET primary antibodies (1:1000). Total MET and phospho-MET expression was quantified using densitometry (ImageJ).
(In general: A western blot detects proteins with antibodies after separation by electrophoresis.)

The next test has as its target recombinant Human KDR (Homo sapiens, UniProt P35968). Put plainly: z'-LYTE FRET kinase activity assay, KDR.
In a further test the target is recombinant Human RON (Homo sapiens, UniProt Q04912). Put plainly: z'-LYTE FRET kinase activity assay, RON.
recombinant Human RON, sequence (Q04912 25-1400): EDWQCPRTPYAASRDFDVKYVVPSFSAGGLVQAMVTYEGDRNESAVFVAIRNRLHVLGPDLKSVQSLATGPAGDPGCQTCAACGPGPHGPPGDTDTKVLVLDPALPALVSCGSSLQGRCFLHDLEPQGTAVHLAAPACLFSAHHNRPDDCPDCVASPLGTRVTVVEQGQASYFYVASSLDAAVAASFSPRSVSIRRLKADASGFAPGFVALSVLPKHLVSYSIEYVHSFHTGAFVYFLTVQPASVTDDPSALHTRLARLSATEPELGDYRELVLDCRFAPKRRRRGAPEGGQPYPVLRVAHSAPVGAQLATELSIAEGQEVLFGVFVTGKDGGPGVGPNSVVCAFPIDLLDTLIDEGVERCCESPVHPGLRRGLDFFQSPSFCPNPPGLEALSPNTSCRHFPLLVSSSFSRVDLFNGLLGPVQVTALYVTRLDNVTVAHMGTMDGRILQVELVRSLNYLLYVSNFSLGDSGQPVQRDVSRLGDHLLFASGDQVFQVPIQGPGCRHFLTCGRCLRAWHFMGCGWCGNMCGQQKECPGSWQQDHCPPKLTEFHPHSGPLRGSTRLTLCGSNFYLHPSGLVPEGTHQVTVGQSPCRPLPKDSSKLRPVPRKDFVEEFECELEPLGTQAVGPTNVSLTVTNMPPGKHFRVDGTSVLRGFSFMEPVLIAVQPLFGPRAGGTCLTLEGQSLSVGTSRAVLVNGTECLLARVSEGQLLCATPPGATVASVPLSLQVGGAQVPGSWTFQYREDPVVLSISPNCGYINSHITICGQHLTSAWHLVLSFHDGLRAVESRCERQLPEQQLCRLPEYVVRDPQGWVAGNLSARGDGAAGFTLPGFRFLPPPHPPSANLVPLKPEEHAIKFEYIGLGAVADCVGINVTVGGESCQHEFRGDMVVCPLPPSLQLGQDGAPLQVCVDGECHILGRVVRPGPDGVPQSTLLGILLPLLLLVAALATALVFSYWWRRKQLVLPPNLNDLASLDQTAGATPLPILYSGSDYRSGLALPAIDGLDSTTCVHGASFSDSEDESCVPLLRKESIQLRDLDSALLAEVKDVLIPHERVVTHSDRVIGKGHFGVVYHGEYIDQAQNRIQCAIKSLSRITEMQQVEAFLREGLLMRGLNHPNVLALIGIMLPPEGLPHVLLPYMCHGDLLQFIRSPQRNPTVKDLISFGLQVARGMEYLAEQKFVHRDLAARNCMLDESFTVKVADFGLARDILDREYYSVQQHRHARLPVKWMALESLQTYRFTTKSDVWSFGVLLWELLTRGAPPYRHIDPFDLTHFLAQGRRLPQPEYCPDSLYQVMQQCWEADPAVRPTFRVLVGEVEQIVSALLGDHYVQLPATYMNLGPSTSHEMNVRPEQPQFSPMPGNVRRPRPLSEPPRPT
Another test has as its target recombinant Human PDGFRα (Homo sapiens, UniProt P16234). Put plainly: z'-LYTE FRET kinase activity assay, PDGFRα.
In a further test the target is T1, recombinant human AXL (Homo sapiens, UniProt P30530).
T1 sequence (P30530 26-894): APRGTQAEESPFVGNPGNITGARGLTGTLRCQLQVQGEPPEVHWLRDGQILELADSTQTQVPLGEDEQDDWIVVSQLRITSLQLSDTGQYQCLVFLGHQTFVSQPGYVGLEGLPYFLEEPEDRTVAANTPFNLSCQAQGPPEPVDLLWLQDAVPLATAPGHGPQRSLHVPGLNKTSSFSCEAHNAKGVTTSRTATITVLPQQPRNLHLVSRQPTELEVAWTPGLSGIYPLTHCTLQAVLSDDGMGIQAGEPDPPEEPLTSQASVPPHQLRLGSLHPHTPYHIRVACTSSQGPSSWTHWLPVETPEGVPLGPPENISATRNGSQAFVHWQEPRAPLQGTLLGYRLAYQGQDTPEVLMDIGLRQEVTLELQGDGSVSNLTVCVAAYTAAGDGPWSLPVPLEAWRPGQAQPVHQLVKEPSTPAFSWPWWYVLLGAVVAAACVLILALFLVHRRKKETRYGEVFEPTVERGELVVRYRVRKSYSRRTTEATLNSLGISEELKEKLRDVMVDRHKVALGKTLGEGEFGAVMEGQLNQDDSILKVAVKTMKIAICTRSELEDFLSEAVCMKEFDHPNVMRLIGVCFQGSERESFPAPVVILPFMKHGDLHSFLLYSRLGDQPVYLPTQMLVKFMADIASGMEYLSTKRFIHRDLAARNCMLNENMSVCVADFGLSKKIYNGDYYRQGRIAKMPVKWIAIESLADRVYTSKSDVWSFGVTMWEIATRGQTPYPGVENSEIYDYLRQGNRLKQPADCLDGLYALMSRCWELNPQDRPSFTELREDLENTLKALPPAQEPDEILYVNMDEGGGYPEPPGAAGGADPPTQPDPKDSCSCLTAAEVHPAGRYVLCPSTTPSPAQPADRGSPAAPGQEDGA
Kind of test: z'-LYTE FRET kinase activity assay, AXL.

The mark [2] stands for this setting: Foretinib-TCO (11) IC50 value divided by Foretinib IC50 value.

SMILES strings stand for the structures.

recombinant human MET, sequence (P08581 25-1390): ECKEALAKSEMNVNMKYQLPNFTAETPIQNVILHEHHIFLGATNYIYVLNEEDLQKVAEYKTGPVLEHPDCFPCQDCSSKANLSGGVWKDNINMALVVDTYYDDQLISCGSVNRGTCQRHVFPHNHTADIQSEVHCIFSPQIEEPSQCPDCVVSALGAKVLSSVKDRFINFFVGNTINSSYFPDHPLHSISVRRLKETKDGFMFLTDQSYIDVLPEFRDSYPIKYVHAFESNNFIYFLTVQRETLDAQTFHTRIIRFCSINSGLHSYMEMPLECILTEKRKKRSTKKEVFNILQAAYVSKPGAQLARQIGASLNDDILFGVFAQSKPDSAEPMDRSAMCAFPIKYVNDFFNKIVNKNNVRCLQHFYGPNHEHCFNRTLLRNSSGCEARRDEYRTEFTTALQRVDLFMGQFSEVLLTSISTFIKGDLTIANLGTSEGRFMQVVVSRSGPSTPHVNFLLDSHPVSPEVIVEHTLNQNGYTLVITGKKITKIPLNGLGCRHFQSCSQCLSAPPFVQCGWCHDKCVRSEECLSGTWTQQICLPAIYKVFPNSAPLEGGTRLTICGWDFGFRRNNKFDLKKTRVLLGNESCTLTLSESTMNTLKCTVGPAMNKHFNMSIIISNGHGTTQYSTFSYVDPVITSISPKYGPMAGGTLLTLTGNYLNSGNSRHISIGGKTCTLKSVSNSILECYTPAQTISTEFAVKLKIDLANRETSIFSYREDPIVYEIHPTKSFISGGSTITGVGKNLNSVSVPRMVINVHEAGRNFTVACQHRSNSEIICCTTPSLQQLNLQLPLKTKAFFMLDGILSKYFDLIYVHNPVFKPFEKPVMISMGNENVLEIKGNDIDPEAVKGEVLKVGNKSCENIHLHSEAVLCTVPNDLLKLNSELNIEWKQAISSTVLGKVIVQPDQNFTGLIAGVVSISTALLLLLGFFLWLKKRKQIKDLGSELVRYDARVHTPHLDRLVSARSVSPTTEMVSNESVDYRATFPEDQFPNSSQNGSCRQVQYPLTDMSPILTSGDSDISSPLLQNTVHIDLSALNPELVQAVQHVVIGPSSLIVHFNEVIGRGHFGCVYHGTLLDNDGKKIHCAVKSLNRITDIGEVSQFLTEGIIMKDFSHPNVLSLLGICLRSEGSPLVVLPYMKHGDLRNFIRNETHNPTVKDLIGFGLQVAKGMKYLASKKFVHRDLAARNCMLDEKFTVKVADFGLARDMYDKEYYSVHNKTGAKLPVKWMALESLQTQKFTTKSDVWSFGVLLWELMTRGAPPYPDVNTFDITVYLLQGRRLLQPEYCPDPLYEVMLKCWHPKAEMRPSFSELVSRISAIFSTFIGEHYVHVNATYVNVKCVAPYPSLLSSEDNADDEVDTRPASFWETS
recombinant Human KDR, sequence (P35968 20-1356): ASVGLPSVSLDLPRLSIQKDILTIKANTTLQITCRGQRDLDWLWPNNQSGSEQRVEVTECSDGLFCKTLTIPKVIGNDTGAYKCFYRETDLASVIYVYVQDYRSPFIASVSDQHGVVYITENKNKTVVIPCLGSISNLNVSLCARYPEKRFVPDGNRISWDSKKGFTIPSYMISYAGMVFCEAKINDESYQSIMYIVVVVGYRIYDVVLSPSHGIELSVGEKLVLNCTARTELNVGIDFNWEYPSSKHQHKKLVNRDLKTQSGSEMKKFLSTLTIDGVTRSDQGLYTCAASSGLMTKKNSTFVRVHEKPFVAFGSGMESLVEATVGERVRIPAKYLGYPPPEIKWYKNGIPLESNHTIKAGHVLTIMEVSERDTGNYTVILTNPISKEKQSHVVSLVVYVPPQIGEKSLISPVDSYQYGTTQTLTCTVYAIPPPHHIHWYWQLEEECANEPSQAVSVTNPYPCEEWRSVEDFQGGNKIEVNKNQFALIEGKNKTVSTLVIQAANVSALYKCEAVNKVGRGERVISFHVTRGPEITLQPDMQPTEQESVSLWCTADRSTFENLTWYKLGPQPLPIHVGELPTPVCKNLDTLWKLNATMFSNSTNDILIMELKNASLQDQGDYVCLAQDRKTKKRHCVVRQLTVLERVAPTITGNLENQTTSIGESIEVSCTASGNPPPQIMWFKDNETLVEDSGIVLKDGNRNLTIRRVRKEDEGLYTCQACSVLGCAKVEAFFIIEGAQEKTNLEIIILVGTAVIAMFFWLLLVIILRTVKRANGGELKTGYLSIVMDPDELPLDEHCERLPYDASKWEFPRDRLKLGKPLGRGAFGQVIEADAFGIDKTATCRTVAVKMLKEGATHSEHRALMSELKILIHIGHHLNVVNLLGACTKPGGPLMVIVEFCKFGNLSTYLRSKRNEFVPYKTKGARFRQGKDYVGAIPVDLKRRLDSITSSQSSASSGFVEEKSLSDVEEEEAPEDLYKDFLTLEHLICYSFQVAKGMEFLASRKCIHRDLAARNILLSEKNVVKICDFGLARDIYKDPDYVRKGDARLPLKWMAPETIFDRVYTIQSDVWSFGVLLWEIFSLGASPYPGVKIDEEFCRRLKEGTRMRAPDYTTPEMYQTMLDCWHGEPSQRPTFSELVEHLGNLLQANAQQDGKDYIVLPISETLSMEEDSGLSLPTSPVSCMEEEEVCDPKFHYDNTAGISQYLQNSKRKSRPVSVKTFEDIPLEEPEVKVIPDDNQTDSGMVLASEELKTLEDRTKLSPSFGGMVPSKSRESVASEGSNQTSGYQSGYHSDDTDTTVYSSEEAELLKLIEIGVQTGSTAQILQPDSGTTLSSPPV
recombinant Human PDGFRα, sequence (P16234 24-1089): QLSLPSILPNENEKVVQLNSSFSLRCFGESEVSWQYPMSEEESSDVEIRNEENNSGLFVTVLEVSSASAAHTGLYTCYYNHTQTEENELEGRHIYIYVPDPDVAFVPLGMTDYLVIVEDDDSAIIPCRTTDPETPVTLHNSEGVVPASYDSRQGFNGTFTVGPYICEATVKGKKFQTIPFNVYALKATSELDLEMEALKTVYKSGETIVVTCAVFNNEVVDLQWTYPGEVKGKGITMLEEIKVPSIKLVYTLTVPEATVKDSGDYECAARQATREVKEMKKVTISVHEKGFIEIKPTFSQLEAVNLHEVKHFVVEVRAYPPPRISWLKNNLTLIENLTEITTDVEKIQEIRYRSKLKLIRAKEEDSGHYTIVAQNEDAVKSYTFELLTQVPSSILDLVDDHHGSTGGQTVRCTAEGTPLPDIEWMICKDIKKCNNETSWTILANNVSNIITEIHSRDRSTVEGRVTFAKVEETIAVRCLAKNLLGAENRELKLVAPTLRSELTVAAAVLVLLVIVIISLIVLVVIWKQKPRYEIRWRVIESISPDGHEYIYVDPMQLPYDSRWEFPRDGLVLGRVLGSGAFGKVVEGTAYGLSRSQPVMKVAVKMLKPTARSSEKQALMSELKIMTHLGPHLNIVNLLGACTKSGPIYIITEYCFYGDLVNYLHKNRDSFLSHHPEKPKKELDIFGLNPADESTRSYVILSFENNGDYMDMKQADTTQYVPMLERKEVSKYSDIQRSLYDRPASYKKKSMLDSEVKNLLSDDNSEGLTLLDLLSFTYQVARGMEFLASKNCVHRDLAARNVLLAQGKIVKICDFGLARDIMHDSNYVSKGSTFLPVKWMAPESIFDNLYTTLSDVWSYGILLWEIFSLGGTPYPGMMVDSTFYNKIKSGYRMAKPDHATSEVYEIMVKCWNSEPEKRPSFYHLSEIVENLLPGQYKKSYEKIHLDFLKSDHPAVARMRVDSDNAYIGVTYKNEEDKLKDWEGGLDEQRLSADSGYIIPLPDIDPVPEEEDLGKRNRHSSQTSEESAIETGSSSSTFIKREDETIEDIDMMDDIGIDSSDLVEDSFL
Experimental for recombinant Human KDR: (§1) The Tyr6 peptide kit was used to measure MET, RON, and AXL activity. The Tyr4 peptide kit was used for PDGFRα and the Tyr1 peptide kit was used to measure KDR activity. All assays were run in accordance with the manufacturer’s instructions, with minor modification. Briefly, MET, RON, and KDR were used at 0.2 μg/ml, 0.8 μg/ml, and 0.7 μg/ml, respectively. The kinase reaction buffer for MET, RON, and KDR was supplemented with 0.67% DMSO. AXL was used at 1.5 μg/ml and the reaction buffer was supplemented with 0.01% sodium azide and 0.67% DMSO. PDGFRα was used at 2.5 μg/ml and the reaction buffer was supplemented with 1mM DTT, 2mM MnCl2, and 0.67% DMSO. Inhibitors were prepared by 4-fold serial dilution at 75X the final concentration in 100% DMSO (8 μM to 0.1 nM). This stock was then diluted to 3X the final concentration in kinase reaction buffer. 5 μl of the 3X stock was added to the final 15 μl reaction volume. Both the z´-LYTE control phosho-peptide and the z´-LYTE peptide were used at a final concentration of 2 μM. […] Development reagent was then incubated for 1 hour at room temperature. […] IC50 values were obtained by fitting the dose-response curves using Prism 6 (GraphPad).
Experimental for recombinant Human PDGFRα: as §1
Experimental for recombinant Human RON: as §1
Experimental for recombinant human AXL: as §1
Experimental for recombinant human MET: as §1

For orientation: IC50 means the concentration that inhibits the measured activity by half. Regarding `COc1cc2c(Oc3ccc(NC(=O)C4(C(=O)Nc5ccc(F)cc5)CC4)cc3F)ccnc2cc1OCCCN1CCN(C(=O)CCc2ccc3n2[B-](F)(F)[N+]2=C(C)C=C(C)C2=C3)CC1` [Foretinib-BODIPY-FL, 5,5-difluoro-7-(3-(4-(3-((4-(2-fluoro-4-(1-((4-fluorophenyl)carbamoyl)cyclopropanecarboxamido)phenoxy)-6-methoxyquinolin-7-yl)oxy)propyl)piperazin-1-yl)-3-oxopropyl)-1,3-dimethyl-5H-dipyrrolo[1,2-c:2',1'-f][1,3,2]diazaborinin-4-ium-5-uide], on recombinant human MET, the IC50 worked out at 697 nM. Further, the “change of MET IC50 relative to Foretinib (loss in drug activity)” value on recombinant human MET (from 28.7 nM to 697.4 nM) is reported as “over 24 fold”. Moreover, the “effect on MET phosphorylation” value in test [1] is “decrease in MET phosphorylation”.

In the case of `O=C(NCCn1cc(-c2cnc3nnn(Cc4ccc5ncccc5c4)c3n2)cn1)OC1CC/C=C/CCC1` (centres unmarked) [PF04217903-TCO, (E)-cyclooct-4-en-1-yl (2-(4-(1-(quinolin-6-ylmethyl)-1H-[1,2,3]triazolo[4,5-b]pyrazin-6-yl)-1H-pyrazol-1-yl)ethyl)carbamate], the concentration for half-maximal inhibition (IC50) on recombinant human MET stood at 1.48 nM.

Regarding `COc1cc2c(Oc3ccc(NC(=O)C4(C(=O)Nc5ccc(F)cc5)CC4)cc3F)ccnc2cc1OCCCN1CCOCC1` [Foretinib, N1’-[3-fluoro-4-[[6-methoxy-7-(3-morpholinopropoxy)-4-quinolinyl]oxy]phenyl]-N1-(4-fluorophenyl)cyclopropane-1,1-dicarboxamide, reference compound], the “effect on MET phosphorylation” value in test [1] was “complete decrease in MET phosphorylation”.

As to `COc1cc2c(Oc3ccc(NC(=O)C4(C(=O)Nc5ccc(F)cc5)CC4)cc3F)ccnc2cc1OCCCN1CCN(C(=O)OC2CC/C=C/CCC2)CC1` (centres unmarked) [Foretinib-TCO, (E)-cyclooct-4-en-1-yl 4-(3-((4-(2-fluoro-4-(1-((4-fluorophenyl)carbamoyl)cyclopropanecarboxamido)phenoxy)-6-methoxyquinolin-7-yl)oxy)propyl)piperazine-1-carboxylate], the IC50 on recombinant Human KDR is 150 nM; on recombinant Human RON, 82.7 nM; at recombinant Human PDGFRα, 265 nM; at recombinant human AXL, 72.5 nM; at recombinant human MET it was 88.6 nM. The “Fold Change (TCO/Foretinib) KDR” value on recombinant Human KDR (setting [2]) came out at 6.2. At recombinant Human RON (setting [2]), the “Fold Change (TCO/Foretinib) RON” value is recorded as 4.1. Further, the “Fold Change (TCO/Foretinib) PDGFRα” value at recombinant Human PDGFRα (setting [2]) turned out to be 4.5. Moreover, the “Fold Change (TCO/Foretinib) AXL” value at recombinant human AXL (setting [2]) is on record as 3.4. Further, at recombinant human MET (setting [2]), the “Fold Change (TCO/Foretinib) MET” value is recorded as 3.1. In addition, the “effect on MET phosphorylation” value in test [1] is on record as “decrease in MET phosphorylation”. Further, the “potency in decreasing MET phosphorylation compared with the BODIPY-FL (12) version” value in test [1] (OVCA429 cells, 0.1-1 μM, HGF stimulation, Western blot) is listed as “greater potency”.

(Values after article PMC3827223, “Bioorthogonal Small Molecule Imaging Agents Allow Single-Cell Imaging of MET” (PLoS ONE, 2013).)
